The record followed here is patent US12685791B2, “Free PSA antibodies as diagnostics, prognostics and therapeutics for prostate cancer” (Memorial Sloan Kettering Cancer Center, priority 2011, dated 2026).

Several values for one entry are separate records, joined by “and”; a condition that tells them apart may be missing. Equal values may be shown once.

For series [1], the system named is bone remodeling (fractured tibia). Description: Bone fracture model, PET/SPECT of bone remodeling. It counts as in vivo, mice. The settings on record: PET or SPECT. Here is the method:
Osseous tumors were established in intact male mice via injection of LNCaP-AR in the tibia of the left hindlimb as follows. Prior to surgery, […] male SCID mice were anesthetized with ketamine, and an incision was be made in the left hind limb. The tibia was punctured using a bone drill, and 1×10^5 cells (22Rv1 or LNCaP-AR) injected into the marrow. The puncture was closed with bone wax, the incision sutured, and animals received a palliative dose of carprofen (5 mg/kg) once daily for three days post surgery. Tumor development was followed with bioluminescence imaging, and confirmed with MRI. The bone fracture model was prepared similar to the osseous tumor model, excluding injection of cells and application of bone wax.
In FIG. 14c, intact male mice received a fracture in the tibia, and ten days post surgery, bone remodeling was evaluated with ^18F—NaF. A clear region of contrast was identified in the fractured tibia by PET.

Series [2] concerns LNCaP-AR xenografts. The series is described as follows: Ex vivo biodistribution of 89Zr-5A10, castrate male mice bearing LNCaP-AR xenografts treated with vehicle or MDV3100 (Table 13). It is filed as in vivo.
Procedure: All animal experiments were conducted in compliance with Institutional Animal Care and Use Committee (IACUC) guidelines and the Guide for the Care and Use of Laboratory Animals. Male CB-17 SCID mice (6-8 weeks old) were obtained from Taconic Farms Inc. (Hudson, NY), LNCaP-AR, 22Rv1, and PC3 tumors were inoculated in the right flank by sub-cutaneous (s.c.) injection of 1.0×10^6 cells in a 200 μL cell suspension of a 1:1 v/v mixture of media with reconstituted basement membrane (BD Matrigel™, Collaborative Biomedical Products Inc., Bedford, MA). Palpable tumors (50-250 mm^3) developed after a period of 3-7 weeks. Surgical castration and pellet implantation were performed according to known protocols under anesthesia with isoflurane. […]
Tissues were harvested at multiple time points post-injection (p.i.) to determine the kinetics of radiotracer biodistribution (FIG. 3a). […] Animals (n=4-5, per group) were euthanized by CO2 (g) asphyxiation at 1, 4, 12, 24, 48, 72, 96, and 120 h post-injection and 16 tissues (including the tumor) were removed, rinsed in water, dried in air for 5 min., weighed and counted on a gamma-counter for accumulation of ^89Zr-radioactivity. […] Count data were background- and decay-corrected and the tissue uptake measured in units of percentage injected dose per gram (% ID/g) for each sample was calculated by normalization to the total amount of activity injected. […]
Series [3] has as its system LNCaP-AR xenografts. Description: 89Zr-5A10 PET, region-of-interest analysis (SUVmean) of s.c. LNCaP-AR tumors (Table 16). It counts as in vivo, mice.
In series [4] the test system is fPSA and tPSA. The series is described as follows: Tumor PSA ELISA, castrate male mice bearing LNCaP-AR tumors treated with vehicle or MDV3100 (Table 14). The settings on record: for f/t PSA Ratio / fPSA / fPSA/tProtein: tumor, individual mice, listed as MDV. It counts as in vivo, human. Here is the method:
(§1) Mice were injected with ^89Zr-5A10, and at the indicated time point post injection, were sacrificed for PSA analysis. Tumor tissues were surgically excised. fPSA and total PSA (“tPSA”) were determined with PSA-directed ELISA, and the values were normalized to total protein concentration. fPSA concentrations are reported as average ng/ml(a), total PSA (“tPSA”) concentrations are reported as ng/mL (b), and total protein concentrations are reported as ng/mg (c). ELISAs were conducted as follows for PSA detection in serum and tumor tissues. fPSA and tPSA were measured with a dual-label immunofluorometric assay (DELFIA Prostatus™ PSA Free/Total PSA; Perkin-Elmer Life Sciences) according to manufacturer's recommendations. This assay measured fPSA and complexed PSA (cPSA) in an equimolar fashion^8, and the cross-reactivity of PSA-ACT for fPSA was <0.2%^9. […] For detection, the 1235 automatic immunoassay system from Perkin-Elmer Life Sciences was used. cPSA concentrations were calculated by subtracting fPSA from tPSA.
As expected, each dose of MDV3100 inhibited AR signaling and fPSA synthesis (Table 14). Table 14 provides data regarding tumor analysis of PSA expression levels via ELISA in castrate male mice bearing LNCaP-AR tumors treated with antiandrogens. Castrate male mice bearing LNCaP-AR xenografts received a daily oral gavage of vehicle (VEH #), 10 mg/kg (MDV10 #), 40 mg/kg (MDV40 #), or 80 mg/kg (MDV80 #). Six days post manipulation, mice were injected with ^89Zr-5A10. Twenty four hours post injection, mice were sacrificed for PSA analysis. Tumor tissues were surgically excised. fPSA and tPSA were determined with PSA-directed ELISA (as above), and in the case of intratumoral PSA, the values were normalized to total protein concentration. ^afPSA concentrations are reported as ng/ml, ^btotal PSA concentrations are reported as ng/mL, ^ctotal protein concentrations are reported as ng/mg. Abbreviations: fPSA, fPSA; tPSA, total PSA.

The test system of series [5] is fPSA and tPSA. Description: Intratumoral PSA ELISA, castrate male mice bearing LNCaP-AR xenografts, no treatment or testosterone pellet (Table 10). It counts as in vivo, human. The protocol: as §1
Table 10 provides intratumoral PSA concentrations in castrate male mice bearing LNCaP-AR xenografts, receiving either no manipulation, or a subcutaneous testosterone pellet. […] Twenty four hours post injection, mice were sacrificed for PSA analysis. Tumor tissues were surgically excised. fPSA and tPSA were determined with PSA-directed ELISA (as above), and in the case of intratumoral PSA, the values were normalized to total protein concentration. ^afPSA concentrations are reported as ng/ml, ^btotal PSA concentrations are reported as ng/mL, ^ctotal protein concentrations are reported as ng/mg. Abbreviations: fPSA, fPSA; tPSA, total PSA.
For orientation: In an ELISA, binding on a coated surface is turned into a signal by an enzyme label.

In series [6] the test system is fPSA and tPSA. The series is described as follows: Tumor PSA ELISA, castrate male mice bearing 22Rv1 tumors, no treatment or testosterone pellet (Table 12). It is filed as in vivo, human. The settings on record: 22Rv1 tumor, individual mice with s.c. testosterone pellet, 7 d. Here is the method:
as §1
Twenty four hours post-injection, mice were sacrificed for PSA analysis. […]

Setting [7] is: 10 mg/kg daily oral gavage, 10 mg/kg.
Where [8] appears, read: 40 mg/kg daily oral gavage, 40 mg/kg.
The mark [9] stands for this setting: 80 mg/kg daily oral gavage, 80 mg/kg.
Where [10] appears, read: tumor, individual mice with s.c. testosterone pellet, 7 d.

As to `[18F-].[Na+]` [18FNaF], the “localization to site of bone repair (fractured tibia)” value in series [1] is reported as “readily localized”.
Take `O.O.O=P([O-])([O-])CP(=O)([O-])[O-].[99Tc+4]` [99mTc-MDP]: the “localization to site of bone repair (fractured tibia)” value in series [1] was “readily localized”.
`CNC(=O)c1ccc(N2C(=S)N(c3ccc(C#N)c(C(F)(F)F)c3)C(=O)C2(C)C)cc1F` [MDV3100]: in series [2] (40 and 80 mg/kg dose vs vehicle), the “tumor-associated 89Zr-5A10” value is given as “significantly decreased”. In series [2] (daily oral gavage 7 d, 10, 40 or 80 mg/kg), the “effect on localization of 89Zr-5A10 to tumor” value is “inhibits”. The “tumor-associated 89Zr-5A10 by PET” value in series [3] (80 mg/kg daily oral gavage vs vehicle) is “statistical changes”. For the same compound, the “AR signaling and fPSA synthesis” value in series [4] (each dose (10, 40, 80 mg/kg)) is “inhibited”. Moreover, the “f/t PSA Ratio” value in series [4] (setting [7]) was 0.73 and 0.56 and 0.60 and 0.69; in series [4] (setting [8]), 0.89 and 0.85 and 0.80; in series [4] (setting [9]), 0.57 and 0.69 and 0.59. Further, the fPSA is 19.12 ng/mL and 48.98 ng/mL and 3.96 ng/mL and 474.40 ng/mL in series [4] (setting [7]); 71.24 ng/mL and 43.25 ng/mL and 98.26 ng/mL in series [4] (setting [8]); 5.97 ng/mL and 77.83 ng/mL and 57.31 ng/mL in series [4] (setting [9]). In addition, the fPSA/tProtein in series [4] (setting [7]) was 3.29 and 7.07 and 0.88 and 51.57; in series [4] (setting [8]), 11.61 and 6.14 and 15.13; in series [4] (setting [9]), 1.18 and 10.34 and 9.99.
`C[C@]12CC[C@H]3[C@@H](CCC4=CC(=O)CC[C@@]43C)[C@@H]1CC[C@@H]2O` [testosterone]: the “tumor-associated 89Zr-5A10 by PET” value in series [3] (s.c. testosterone pellets) is reported as “significant increase”. For the same compound, the “intratumoral PSA levels” value in series [5] (s.c. testosterone pellet vs no manipulation) is recorded as “increased”. In series [5] (setting [10]), the “f/t PSA Ratio” value is 0.81 and 0.60 and 0.70 and 0.20; the fPSA was 147.77 ng/mL and 424.31 ng/mL and 384.89 ng/mL and 566.42 ng/mL; the fPSA/tProtein is 22.69 and 51.56 and 65.44 and 66.60. In series [6], the fPSA is 31.0 ng/mL and 26.8 ng/mL and 29.8 ng/mL and 32.9 ng/mL; the fPSA/tProtein is 3.60 and 2.84 and 3.44 and 4.19.
